Assay results published in patent publication US12642786B2, “Methods, compositions and kits for treating multiple sclerosis and other disorders” (The Johns Hopkins University, priority 2018, dated 2026).
Entries after “also recorded” stand apart in the source; their conditions may differ.

Key:
[1] = tested on: bone marrow-derived dendritic cells (BMDCs); assay: BMDC CD40 and CD86 expression by flow cytometry; assay type: cell-based, C57BL/6J mice
Experimental: All staining procedures were performed in the dark at room temperature. For analysis of surface marker expression on bone marrow-derived DCs, cells were first stained with LIVE/DEAD aqua (Life Technologies, L-34966) for 30 min at room temperature in PBS. Fc receptors were blocked with anti-CD16/CD32 (Biolegend, 101320) for the final 10 min of staining. The cells were then washed and stained with specific conjugated antibodies for the specified surface markers in FACS buffer (PBS supplemented with 2% FBS and 1 mM EDTA) for 30 min.
Cells were analyzed by flow cytometry using a MACSQuant flow cytometer (Miltenyi Biotec). Flow data analysis was performed in FlowJo (FlowJo) or FlowLogic (Inivai).
BMDCs were generated as described in Lutz, “An advanced culture method for generating large quantities of highly pure dendritic cells from mouse bone marrow,” 1999, J. Immunol. Methods 223:77-92, with minor modifications. Briefly, femurs were removed from 6-10-wk-old female C57BL/6J mice, cut on both ends, and marrow flushed with PBS. Bone marrow cells were then pelleted by centrifugation (500×g for 8 min), resuspended in red blood cell lysis buffer (Sigma) for 1 min, and quenched with excess PBS. After another centrifugation, cells were resuspended in complete RPMI (cRPMI) media consisting of RPMI-1640 with GlutaMAX™ supplement (Thermo Fisher Scientific) supplemented with 10% FBS, penicillin-streptomycin (Gibco), and 50 μM 2-mercaptoethanol (Sigma). On day 0, ˜2×10^6 cells were then seeded per 100-mm plate in 10 mL media containing 20 ng/mL rmGM-CSF (Peprotech). On day 3, an additional 10 mL fresh cRPMI media containing 20 ng/mL rmGM-CSF was added to each plate. On day 6, half the culture supernatant from each plate was removed and centrifuged, and the pelleted cells resuspended in 10 mL fresh cRPMI with 20 ng/mL rmGM-CSF and added back to the plates. On day 8, all nonadherent cells (representing the BMDC fraction) were collected, pelleted by centrifugation, resuspended in fresh cRPMI media with 20 ng/mL rmGM-CSF, and plated into 24-well dishes. These BMDCs were then treated overnight with or without LPS 100 ng/mL plus the indicated doses of bryo-1. The following day (day 9), these cells were then assayed by flow cytometry or cytokine ELISA.

[2] = tested on: EAE (MOG35-55 immunized mice); assay: EAE prevention paradigm, clinical scoring; assay type: in vivo, C57BL/6J mice; conditions: 30 μg/kg i.p. 3 d per week from day of MOG35-55 immunization (day 0)
Description: Experimental autoimmune encephalomyelitis (EAE) is an experimental animal model that recapitulates some aspects of MS. In the active-induction model of mouse EAE, mice are immunized with a peptide derived from myelin oligodendrocyte glycoprotein (MOG35-55), resulting in robust CNS inflammation causing demyelination, axonal injury, and motor weakness/paralysis.
Active EAE was induced in 8-12 wk-old female C57BL/6J mice that had been allowed to acclimatize to the animal facility for at least 1 wk. MOG35-55 peptide dissolved in PBS at a concentration of 2 mg/mL was mixed 1:1 with complete Freund's adjuvant to make an emulsion. On day 0, mice were immunized by injecting 50 μL of the emulsion s.c. into each of two sites on the lateral abdomen. In addition, on day 0 and again on day 2, mice were injected intraperitoneally with 250 ng pertussis toxin. Mice were weighed and scored beginning on day 7 post-immunization. Scoring was performed in a blinded manner according to the following scale:
Bryo-1 was prepared by initially dissolving in 100% ethanol and then further diluting to 20% ethanol and 1% DMSO in PBS. The final concentration of bryo-1 was […] Mice were treated by i.p. injection of […] bryo-1 or an equal volume of vehicle control (20% ethanol and 1% DMSO in PBS) 3 d per week (Monday, Wednesday, Friday). […]

[3] = tested on: murine peritoneal macrophages (mPMs); assay: mPM arginase-1 expression by Western blot; assay type: cell-based; conditions: IL-4 20 ng/mL
Experimental: Cells were lysed by sonication in RIPA buffer supplemented with protease inhibitors, and protein concentration was measured by Bradford assay. Lysates were mixed with SDS sample buffer, boiled, and resolved by SDS/PAGE. Bands were transferred to PVDF Immobilon P membranes (Millipore) using a wet transfer, blocked in TBS-T containing 5% milk, and probed overnight at 4° C. with mouse monoclonal antibody against arginase-1 (Santa Cruz Biotechnology, catalog #sc-271430, 1:500). HRP-conjugated anti-mouse secondary antibody was from Jackson ImmunoResearch. Western blots were visualized using the SuperSignal West ECL system (Thermo Scientific), followed by film exposure. Blots were then stripped using Restore Western blot stripping buffer (Thermo Scientific, catalog #21059), blocked again as earlier, and probed overnight at 4° C. with HRP-conjugated anti-actin antibody before visualization as earlier. Quantitation was performed using ImageJ software.
Mice aged 8-12 wk were injected intraperitoneally with 2 mL each of 3% sterile thioglycolate (BD Biosciences, catalog #211716) medium. […] Cells were then counted, equal numbers were plated into each well of appropriate cell culture dishes, and the cells were then incubated at 37° C. for 2-4 h to allow macrophage adhesion. […]

[4] = tested on: murine peritoneal macrophages (mPMs); assay: mPM cytokine secretion by ELISA; assay type: cell-based; conditions: LPS 100 ng/mL, low-dose bryo-1
Experimental: After overnight treatment of BMDCs or mPMs with LPS 100 ng/mL±bryo-1, culture supernatants were collected and cytokine production was assayed using ELISA kits for IL-12 p70 (catalog #88-7121-22), IL-6 (catalog #88-7064-22), and IL-10 (catalog #88-7105-22) purchased from eBioscience, according to manufacturer's instructions. Plates were read at 450 nm on a tabletop plate reader.
Mice aged 8-12 wk were injected intraperitoneally with 2 mL each of 3% sterile thioglycolate (BD Biosciences, catalog #211716) medium. The mice were killed 3-5 d later, and cells were harvested by peritoneal lavage with ice-cold RPMI medium containing 2% FBS (FBS) and 1 unit/mL heparin. The cells were pelleted by centrifugation at 500×g for 8 min, washed in ice-cold RPMI containing 2% FBS alone, pelleted by centrifugation, and resuspended in ice-cold Spinner-modification minimum essential medium (SMEM; Sigma, M8167) supplemented with 10% FBS, 2 mM glutamine, and penicillin-streptomycin (SMEM-complete). Cells were then counted, equal numbers were plated into each well of appropriate cell culture dishes, and the cells were then incubated at 37° C. for 2-4 h to allow macrophage adhesion. Contaminating nonadherent cells were then removed by washing culture dishes five times with ice-cold sterile PBS. Fresh SMEM-complete was then added to the plates, which were incubated overnight at 37° C. […]

Question: Which “CD86 expression in LPS-stimulated BMDCs” value ([1]; LPS 100 ng/mL) does the source give for CCC/C=C/C=C/C(=O)OC1/C(=C/C(=O)OC)CC2CC(C(C)O)OC(=O)CC(O)CC3CC(OC(C)=O)C(C)(C)C(O)(CC4C/C(=C/C(=O)OC)CC(/C=C/C(C)(C)C1(O)O2)O4)O3 (centres unmarked) [bryo-1, Bryostatin-1] here?
Answer: The value was “no effect”.

Question: And the “LPS-induced up-regulation of CD40” value ([1]; LPS 100 ng/mL, bryo-1 at either 20 or 200 nM)?
Answer: Its value is “abrogated”.

Question: And the CD40 expression ([1]; absence of LPS, overnight)?
Answer: The CD40 expression was “no significant effect”.

Question: What about the CD86 expression ([1]; absence of LPS, overnight) of the same molecule?
Answer: Its CD86 expression is “up-regulates CD86”.

Question: And the “onset of EAE (clinical course)” value [2]?
Answer: The value was “abolished the onset of EAE”.

Question: What about the “IL-4-induced expression of arginase-1” value [3] of the same molecule?
Answer: The value was “augments expression; also recorded: potentiated”.

Question: And the “LPS-induced secretion of IL-6” value [4]?
Answer: The value was “inhibited”.

Question: And the “LPS-induced secretion of IL-12” value [4]?
Answer: The value was “inhibited”.
